From US9205124B2, “Compounds for enzyme inhibition” (Onyx Therapeutics, Inc., priority 2005, dated 2015)

Test system: proteasome CT-L activity
Experiment: Proteasome CT-L activity in blood lysates of mice one hour after oral dosing (LLVY-AMC cleavage)
Format: in vivo
Conditions: one hour post-dosing, vs vehicle-dosed cohort
Method: Compounds were formulated in 10% PS80/NaCitrate (pH 3) vehicle and administered to mice orally (PO) (3 animals/cohort). One hour post-dosing, the animals were sacrificed and the following tissues harvested: blood, brain, adrenal gland, heart and liver. Whole blood (˜200 μl) was washed twice with PBS and lysed by hypotonic shock (300 μl 50 mM Tris pH 8, 5 mM EDTA). Blood lysates were stored at −80° C. until assayed. Blood lysates were clarified by centrifugation in a microcentrifuge. The CT-L specific activity of proteasome in each lysate was evaluated by determining: a) the protein concentration by modified Bradford assay with bovine gamma globulin as a standard; and b) the rate of cleavage of the fluorogenic proteasome substrate LLVY-AMC. The percent proteasome activity for the analog-treated animals was calculated by dividing of the average specific activity for each analog-dosed cohort by the average specific activity of the vehicle-dosed cohort. Percent proteasome inhibition was calculated by subtracting percent proteasome activity from 100.

SMILES | proteasome CT-L inhibition (40 mg/kg PO) [%] | proteasome CT-L inhibition (20 mg/kg PO) [%]
COC[C@H](NC(=O)c1cc(C)on1)C(=O)N[C@@H](Cc1ccccc1)C(=O)N[C@@H](CC(C)C)C(=O)[C@@]1(C)CO1 [Compound (010)] | > 90 | –
CC(C)C[C@H](NC(=O)c1cc(CN2CCOCC2)on1)C(=O)N[C@@H](Cc1ccccc1)C(=O)N[C@@H](CC(C)C)C(=O)[C@@]1(C)CO1 [Compound (023)] | > 80 | –
COC[C@H](NC(=O)c1cc(C)on1)C(=O)N[C@H](C(=O)N[C@@H](CC(C)C)C(=O)[C@@]1(C)CO1)C(C)C [Compound (029)] | – | > 70
COC[C@H](NC(=O)c1cc(C)on1)C(=O)N[C@@H](Cc1cscn1)C(=O)N[C@@H](CC(C)C)C(=O)[C@@]1(C)CO1 [Compound (039)] | – | > 75
Cc1cc(C(=O)N[C@@H](Cc2ccccn2)C(=O)N[C@@H](Cc2ccccc2)C(=O)N[C@@H](CC(C)C)C(=O)[C@@]2(C)CO2)no1 [Compound (055)] | – | > 80
CC(C)C[C@H](NC(=O)[C@H](Cc1ccccc1)NC(=O)[C@@H](NC(=O)c1cc(CN2CCOCC2)on1)C(C)C)C(=O)[C@@]1(C)CO1 [Compound (061)] | > 80 | –
COCC[C@H](NC(=O)c1cc(C(C)C)on1)C(=O)N[C@@H](Cc1ccccc1)C(=O)N[C@@H](CC(C)C)C(=O)[C@@]1(C)CO1 [Compound (068)] | > 70 | –
COC[C@H](NC(=O)c1ccon1)C(=O)N[C@@H](COC)C(=O)N[C@@H](CC(C)C)C(=O)[C@@]1(C)CO1 [Compound (083)] | – | > 80
COC[C@H](NC(=O)c1cc(C)no1)C(=O)N[C@@H](COC)C(=O)N[C@@H](CC(C)C)C(=O)[C@@]1(C)CO1 [Compound (085)] | – | > 50
